Test results: patent US10519147B2 (Merck Sharp & Dohme Corp., priority 2015, dated 2019)
pIC50: −log10 of the molar value.

Tests used:
human Nav1.5 = biological target: T1, human Nav1.5 (Homo sapiens, UniProt Q14524); assay: IonWorks Quattro automated patch-clamp, Nav1.5 (selectivity against Nav1.7); format: cell-based; settings: IonWorks measurement, HEK 293 cells, inactivated state block
T1 construct: expressed in transfected cells; host or cells: HEK 293
Method: Compounds were tested on human Nav1.7 and Nav1.5 channels stably expressed in HEK 293 cells. […] Cells were sealed on a planar substrate using the Population Patch […] (PPC) technology. Electrical access was obtained using both nystatin and amphotericin. A double-pulse protocol was used for the determination of IC50 values for inactivated state block. Nav1.7 and Nav1.5 expressing cells were voltage clamped at −100 mV and −110 mV, respectively. A depolarizing prepulse to −10 mV (Nav1.7) or −30 mV (Nav1.5) for 1000 ms followed by a 10 ms repolarization to −100 mV (Nav1.7) or −110 mV (Nav1.5) was given to generate fractional channel inactivation of 50%, followed by a 10 ms test pulse to −10 mV (Nav1.7) or −30 mV (Nav1.5) to measure peak current in control conditions and after compound addition. The following recording solutions were used (mM). External: 150 NaCl, 2 CaCl2, 5 KCl, 1 Mg Cl2, 10 HEPES, 12 Dextrose; internal: 120 CsF, 30 CsCl, 10 EGTA, 5 HEPES, 5 NaF, 2 MgCl2.
For all electrophysiology experiments, offline analysis was used to determine percent inhibition as a function of drug concentration. IC50 values were determined by fitting to the Hill equation.

human Nav1.7 = biological target: T2, human Nav1.7 (Homo sapiens, UniProt Q15858); assay: IonWorks Quattro automated patch-clamp, inactivated state block of Nav1.7; format: cell-based; settings: channels stably expressed in HEK 293 cells; double-pulse protocol, inactivated state block; read-out: potency for the Nav 1.7 sodium ion channel (IC50, as measured by IonWorks)
T2 construct: expressed in transfected cells; host or cells: HEK 293
In short: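 HEK293 stable lines, IonWorks PPC patch clamp (nystatin/amphotericin access); double-pulse protocol giving ~50% inactivation: holding −100 mV (Nav1.7) or −110 mV (Nav1.5), 1000 ms prepulse to −10 or −30 mV, 10 ms repolarization, 10 ms test pulse. Peak current inhibition versus concentration fitted to Hill equation for IC50.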

T2 sequence (Q15858 whole entry): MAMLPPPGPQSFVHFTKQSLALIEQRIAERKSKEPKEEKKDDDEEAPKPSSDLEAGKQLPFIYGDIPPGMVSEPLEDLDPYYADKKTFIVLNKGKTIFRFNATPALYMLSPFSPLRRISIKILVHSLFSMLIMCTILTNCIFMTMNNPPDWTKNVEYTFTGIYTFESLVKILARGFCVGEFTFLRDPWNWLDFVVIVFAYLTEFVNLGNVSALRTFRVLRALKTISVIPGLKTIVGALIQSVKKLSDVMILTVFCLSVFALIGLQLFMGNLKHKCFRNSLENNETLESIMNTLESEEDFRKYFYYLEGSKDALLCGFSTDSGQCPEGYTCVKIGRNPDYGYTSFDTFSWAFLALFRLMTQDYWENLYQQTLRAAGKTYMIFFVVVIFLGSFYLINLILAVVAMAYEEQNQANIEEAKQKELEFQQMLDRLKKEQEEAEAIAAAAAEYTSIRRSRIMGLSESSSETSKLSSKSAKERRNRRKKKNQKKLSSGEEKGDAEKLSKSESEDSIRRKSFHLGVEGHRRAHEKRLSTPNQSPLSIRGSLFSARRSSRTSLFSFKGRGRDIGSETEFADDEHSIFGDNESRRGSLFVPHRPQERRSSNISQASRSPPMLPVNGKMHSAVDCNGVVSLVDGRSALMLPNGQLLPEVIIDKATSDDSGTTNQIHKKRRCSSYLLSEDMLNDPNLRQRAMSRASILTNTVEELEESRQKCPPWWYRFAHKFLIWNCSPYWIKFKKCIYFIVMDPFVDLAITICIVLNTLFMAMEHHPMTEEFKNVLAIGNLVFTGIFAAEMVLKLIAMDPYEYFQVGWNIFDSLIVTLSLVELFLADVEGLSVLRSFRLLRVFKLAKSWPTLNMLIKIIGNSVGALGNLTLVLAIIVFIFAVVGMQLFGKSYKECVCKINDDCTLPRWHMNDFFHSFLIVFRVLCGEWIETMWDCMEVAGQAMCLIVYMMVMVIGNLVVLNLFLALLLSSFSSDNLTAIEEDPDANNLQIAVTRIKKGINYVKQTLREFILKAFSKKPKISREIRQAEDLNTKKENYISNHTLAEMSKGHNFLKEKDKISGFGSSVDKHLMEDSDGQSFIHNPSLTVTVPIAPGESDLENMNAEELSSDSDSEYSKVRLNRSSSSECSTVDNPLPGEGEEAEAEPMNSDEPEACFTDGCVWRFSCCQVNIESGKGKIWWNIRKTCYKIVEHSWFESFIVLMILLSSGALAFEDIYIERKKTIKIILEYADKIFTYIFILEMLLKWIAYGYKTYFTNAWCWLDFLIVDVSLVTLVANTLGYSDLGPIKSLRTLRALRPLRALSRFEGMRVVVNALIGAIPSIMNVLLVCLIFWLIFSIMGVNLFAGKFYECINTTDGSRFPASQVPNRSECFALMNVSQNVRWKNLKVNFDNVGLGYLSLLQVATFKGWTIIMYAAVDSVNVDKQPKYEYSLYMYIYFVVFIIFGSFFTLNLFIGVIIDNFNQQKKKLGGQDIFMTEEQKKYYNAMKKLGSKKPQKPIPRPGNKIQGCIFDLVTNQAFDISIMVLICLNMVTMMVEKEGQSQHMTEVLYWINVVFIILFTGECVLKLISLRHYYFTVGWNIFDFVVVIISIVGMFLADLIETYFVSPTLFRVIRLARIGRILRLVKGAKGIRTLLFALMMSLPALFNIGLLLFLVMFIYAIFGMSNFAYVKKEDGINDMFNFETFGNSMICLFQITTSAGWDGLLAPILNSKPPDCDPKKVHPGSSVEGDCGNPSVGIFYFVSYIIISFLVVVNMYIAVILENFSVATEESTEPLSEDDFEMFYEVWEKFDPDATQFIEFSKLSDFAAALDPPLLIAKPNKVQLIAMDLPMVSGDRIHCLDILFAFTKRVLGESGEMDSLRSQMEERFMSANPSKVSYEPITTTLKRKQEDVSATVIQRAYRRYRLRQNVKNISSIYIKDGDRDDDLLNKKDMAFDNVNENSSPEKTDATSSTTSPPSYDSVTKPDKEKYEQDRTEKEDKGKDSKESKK
T1 sequence (Q14524 whole entry): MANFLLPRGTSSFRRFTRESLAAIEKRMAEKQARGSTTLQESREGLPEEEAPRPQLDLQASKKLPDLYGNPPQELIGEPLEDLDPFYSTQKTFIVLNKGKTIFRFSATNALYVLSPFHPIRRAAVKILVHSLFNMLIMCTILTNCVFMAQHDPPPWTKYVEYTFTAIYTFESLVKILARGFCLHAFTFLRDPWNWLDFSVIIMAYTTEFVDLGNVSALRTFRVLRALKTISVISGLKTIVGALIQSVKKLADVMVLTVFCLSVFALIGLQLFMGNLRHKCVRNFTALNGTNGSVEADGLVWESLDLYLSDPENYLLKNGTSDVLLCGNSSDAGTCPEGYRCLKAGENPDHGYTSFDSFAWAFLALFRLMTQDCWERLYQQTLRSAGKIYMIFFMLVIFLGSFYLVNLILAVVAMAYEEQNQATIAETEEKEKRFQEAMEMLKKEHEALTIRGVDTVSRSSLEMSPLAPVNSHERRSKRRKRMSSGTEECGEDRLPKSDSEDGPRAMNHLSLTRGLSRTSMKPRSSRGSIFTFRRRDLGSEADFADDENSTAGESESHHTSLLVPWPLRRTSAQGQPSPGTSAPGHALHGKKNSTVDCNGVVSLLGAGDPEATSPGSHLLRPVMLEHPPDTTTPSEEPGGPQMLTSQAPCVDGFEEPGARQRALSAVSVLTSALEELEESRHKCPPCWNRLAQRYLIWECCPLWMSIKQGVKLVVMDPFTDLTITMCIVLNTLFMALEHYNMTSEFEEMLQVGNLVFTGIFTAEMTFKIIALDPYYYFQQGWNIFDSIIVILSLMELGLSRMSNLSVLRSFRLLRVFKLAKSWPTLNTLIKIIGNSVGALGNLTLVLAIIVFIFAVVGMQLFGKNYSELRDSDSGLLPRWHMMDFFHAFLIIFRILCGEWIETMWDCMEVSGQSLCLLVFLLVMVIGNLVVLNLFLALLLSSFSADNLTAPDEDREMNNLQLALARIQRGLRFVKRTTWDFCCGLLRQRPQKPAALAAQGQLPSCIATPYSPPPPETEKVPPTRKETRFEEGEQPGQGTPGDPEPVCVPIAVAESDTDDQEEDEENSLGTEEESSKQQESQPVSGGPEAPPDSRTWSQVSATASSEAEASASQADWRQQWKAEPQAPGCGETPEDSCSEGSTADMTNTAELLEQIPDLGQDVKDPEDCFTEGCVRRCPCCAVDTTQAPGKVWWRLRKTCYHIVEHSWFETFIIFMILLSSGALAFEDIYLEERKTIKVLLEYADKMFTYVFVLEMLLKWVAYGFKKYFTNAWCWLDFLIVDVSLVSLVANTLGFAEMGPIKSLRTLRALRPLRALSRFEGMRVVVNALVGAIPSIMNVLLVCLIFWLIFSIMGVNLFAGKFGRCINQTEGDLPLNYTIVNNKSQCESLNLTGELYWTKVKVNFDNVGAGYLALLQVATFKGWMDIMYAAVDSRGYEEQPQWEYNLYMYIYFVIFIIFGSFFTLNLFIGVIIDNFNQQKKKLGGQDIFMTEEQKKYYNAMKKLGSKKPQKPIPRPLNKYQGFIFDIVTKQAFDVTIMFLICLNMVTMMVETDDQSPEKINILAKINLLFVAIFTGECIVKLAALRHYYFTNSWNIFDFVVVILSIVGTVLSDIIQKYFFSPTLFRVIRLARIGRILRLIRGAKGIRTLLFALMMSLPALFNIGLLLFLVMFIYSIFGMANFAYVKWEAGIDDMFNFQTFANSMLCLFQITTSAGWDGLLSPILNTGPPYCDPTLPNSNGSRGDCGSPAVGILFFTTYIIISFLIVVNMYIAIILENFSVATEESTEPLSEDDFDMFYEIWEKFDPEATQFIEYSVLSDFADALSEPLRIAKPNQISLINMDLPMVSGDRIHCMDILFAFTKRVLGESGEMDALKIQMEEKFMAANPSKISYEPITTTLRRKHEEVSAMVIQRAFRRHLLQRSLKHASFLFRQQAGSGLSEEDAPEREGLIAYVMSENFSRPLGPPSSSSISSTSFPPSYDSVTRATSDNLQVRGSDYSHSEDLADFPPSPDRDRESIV

SMILES | ratio of Nav 1.7 potency:Nav 1.5 potency (human Nav1.5) | pIC50 (human Nav1.7)
C[C@@H](CN)NCCCCNc1cc(F)c(S(=O)(=O)Nc2nccs2)cc1Cl [Ex 16-68, 4-[(4-{[(1S)-2-amino-1-methylethyl]amino}butyl)amino]-5-chloro-2-fluoro-N-1,3-thiazol-2-ylbenzenesulfonamide] | > 1650 | 7.70
N[C@H]1CCC[C@@H]1NCCCCNc1cc(F)c(S(=O)(=O)Nc2ncns2)cc1Cl [Ex 16-70, 4-[(4-{[(1S,2S)-2-aminocyclopentyl]amino}butyl)amino]-5-chloro-2-fluoro-N-1,2,4-thiadiazol-5-ylbenzenesulfonamide] | > 2710 | 8.07
N[C@H]1CCC[C@@H]1NCCCCNc1cc(F)c(S(=O)(=O)Nc2ncc(F)s2)cc1Cl [Ex 16-71, 4-[(4-{[(1S,2S)-2-aminocyclopentyl]amino}butyl)amino]-5-chloro-2-fluoro-N-(5-fluoro-1,3-thiazol-2-yl)benzenesulfonamide] | > 4710 | 8.15
O=S(=O)(Nc1nccs1)c1cc(Cl)c(NCCCCNC[C@@H]2CCN2)cc1F [Ex 16-74, 4-[(4-{[(2S)-azetidin-2-ylmethyl]amino}butyl)amino]-5-chloro-2-fluoro-N-1,3-thiazol-2-ylbenzenesulfonamide] | > 429 | 7.11
O=S(=O)(Nc1nccs1)c1cc(Cl)c(NCCCCNC[C@H]2CCN2)cc1F [Ex 16-75, 4-[(4-{[(2R)-azetidin-2-ylmethyl]amino}butyl)amino]-5-chloro-2-fluoro-N-1,3-thiazol-2-ylbenzenesulfonamide] | > 805 | 7.39
O=S(=O)(Nc1ncns1)c1cc(Br)c(NCCCCNC[C@@H]2CCN2)cc1F [Ex 16-76, 4-[(4-{[(2S)-azetidin-2-ylmethyl]amino}butyl)amino]-5-bromo-2-fluoro-N-1,2,4-thiadiazol-5-ylbenzenesulfonamide] | > 1940 | 7.77
O=S(=O)(Nc1ncns1)c1cc(Br)c(NCCCCNC[C@H]2CCN2)cc1F [Ex 16-77, 4-[(4-{[(2R)-azetidin-2-ylmethyl]amino}butyl)amino]-5-bromo-2-fluoro-N-1,2,4-thiadiazol-5-ylbenzenesulfonamide] | > 1380 | 7.62
C[C@H](CCN)NCCCCNc1cc(F)c(S(=O)(=O)Nc2ncns2)cc1Br [Ex 16-79, 4-[4-[[(1R)-3-amino-1-methyl-propyl]amino]butylamino]-5-bromo-2-fluoro-N-(1,2,4-thiadiazol-5-yl)benzenesulfonamide] | 4260 | 8.27
C[C@H](N)CNCCCCNc1cc(F)c(S(=O)(=O)Nc2ncns2)cc1Br [Ex 16-80, 4-[4-[[(2S)-2-aminopropyl]amino]butylamino]-5-bromo-2-fluoro-N-(1,2,4-thiadiazol-5-yl)benzenesulfonamide] | > 10600 | 8.51
NC1CCC1NCCCCNc1cc(F)c(S(=O)(=O)Nc2ncns2)cc1Cl (stereo not shown) [Ex 16-81, 4-[4-[(2-aminocyclobutyl)amino]butylamino]-5-chloro-2-fluoro-N-(1,2,4-thiadiazol-5-yl) benzenesulfonamide] | > 6700 | 8.31
CC(C)C[C@@H](CNCCCCNc1cc(F)c(S(=O)(=O)Nc2ncc(F)s2)cc1Cl)[C@@H](C)N [Ex 16-84, 4-((4-(((S)-2-((R)-1-aminoethyl)-4-methylpentyl)-amino)butyl)amino)-5-chloro-2-fluoro-N-(5-fluorothiazol-2-yl)benzenesulfonamide] | > 5400 | 8.21
CC(C)C[C@@H](CNCCCCNc1cc(F)c(S(=O)(=O)Nc2ncns2)cc1Cl)[C@@H](C)N [Ex 16-85, 4-((4-(((S)-2-((R)-1-aminoethyl)-4-methylpentyl)-amino)butyl)amino)-5-chloro-2-fluoro-N-(1,2,4-thiadiazol-5-yl) benzenesulfonamide] | > 7330 | 8.35
N[C@@H]1CCC[C@H]1NCCCCNc1cc(F)c(S(=O)(=O)Nc2ncns2)cc1F [Ex 16-86, 4-[4-[[(1R,2R)-2-aminocyclopentyl]amino]butylamino]-2,5-difluoro-N-(1,2,4-thiadiazol-5-yl)benzenesulfonamide] | > 850 | 7.41
NCCNCCCCNc1cc(F)c(S(=O)(=O)Nc2ncns2)cc1Br [Ex 16-88, 4-[4-(2-aminoethylamino)butylamino]-5-bromo-2-fluoro-N-(1,2,4-thiadiazol-5-yl)benzenesulfonamide] | > 3400 | 8.02
CCNCCNCCCCNc1cc(F)c(S(=O)(=O)Nc2ncns2)cc1Br [Ex 16-92, 5-bromo-4-[4-[2-(ethylamino)ethylamino]butylamino]-2-fluoro-N-(1,2,4-thiadiazol-5-yl)benzenesulfonamide] | > 9700 | 8.47
N[C@@H]1CCC[C@@H]1NCCCCNc1cc(F)c(S(=O)(=O)Nc2ncns2)cc1Br [Ex 16-93, 4-[4-[[(1S,2R)-2-aminocyclopentyl]amino]butylamino]-5-bromo-2-fluoro-N-(1,2,4-thiadiazol-5-yl)benzenesulfonamide] | > 800 | 7.39
N[C@@H]1CCC[C@H]1NCCCCNc1cc(F)c(S(=O)(=O)Nc2ncns2)cc1Br [Ex 16-94, 4-[4-[[(1R,2R)-2-aminocyclopentyl]amino]butylamino]-5-bromo-2-fluoro-N-(1,2,4-thiadiazol-5-yl)benzenesulfonamide] | 3150 | 8.14
N[C@H]1CC[C@H](NCCCCNc2cc(F)c(S(=O)(=O)Nc3ncns3)cc2Br)C1 [Ex 16-95, 4-[4-[[(1S,3S)-3-aminocyclopentyl]amino]butylamino]-5-bromo-2-fluoro-N-(1,2,4-thiadiazol-5-yl)benzenesulfonamide] | > 940 | 7.46
NCC1(NCCCCNc2cc(F)c(S(=O)(=O)Nc3ncns3)cc2Br)CC1 [Ex 16-98, 4-[4-[[1-(aminomethyl)cyclopropyl]amino]butylamino]-5-bromo-2-fluoro-N-(1,2,4-thiadiazol-5-yl) benzenesulfonamide] | > 3840 | 8.07
C[C@@H](N)CNCCCCNc1cc(F)c(S(=O)(=O)Nc2ncns2)cc1Br [Ex 16-99, 4-[4-[[(2R)-2-aminopropyl]amino]butylamino]-5-bromo-2-fluoro-N-(1,2,4-thiadiazol-5-yl)benzenesulfonamide] | 3900 | 8.23
